The source of these data is ChEMBL document CHEMBL1201862, “PubChem BioAssay data set” (2004).

In assay [1] the target is T1, Microphthalmia-associated transcription factor (Homo sapiens, UniProt O75030).
T1 sequence (O75030 whole entry): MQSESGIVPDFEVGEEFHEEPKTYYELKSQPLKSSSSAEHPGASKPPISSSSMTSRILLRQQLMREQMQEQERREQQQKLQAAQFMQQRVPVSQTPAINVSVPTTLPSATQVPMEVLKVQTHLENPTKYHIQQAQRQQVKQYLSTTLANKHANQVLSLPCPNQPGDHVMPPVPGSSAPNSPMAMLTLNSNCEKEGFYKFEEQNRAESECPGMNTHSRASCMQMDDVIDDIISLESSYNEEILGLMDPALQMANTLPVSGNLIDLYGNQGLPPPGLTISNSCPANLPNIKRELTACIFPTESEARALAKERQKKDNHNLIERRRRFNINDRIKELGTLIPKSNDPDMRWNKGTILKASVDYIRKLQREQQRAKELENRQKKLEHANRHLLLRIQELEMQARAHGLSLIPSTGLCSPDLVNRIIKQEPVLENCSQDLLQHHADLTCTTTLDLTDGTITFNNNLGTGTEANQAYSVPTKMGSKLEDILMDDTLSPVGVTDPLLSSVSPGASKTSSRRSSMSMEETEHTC
Kind of assay: TRPM1 promoter luciferase signal decrease, dose response, MITF inhibitor project, cell-based, SK-MEL-5, cherry-picked, set 3 (AID 493073).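 Also: SK-MEL-5 melanoma cells with luciferase driven by the MITF target TRPM1 promoter.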 The assay is classed as functional.

The nature of assay [2]: Intein inhibitors as potential Tuberculosis drugs, a cytotoxicity screen. [Related pubchem assays (depositor defined):AID2221, AID2223, AID434968, AID435010, AID449749, AID449750, AID489010]. The class given is functional.
The target in a further assay is Nonstructural protein 1 (Influenza A virus, UniProt Q194T2). The class given is functional, Influenza A virus (A/California/07/2009(H1N1)).
For assay [3], the target named is Ribosomal protein S6 kinase alpha-3 (Homo sapiens, UniProt P51812). The class given is functional.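 Also: measured within a kinome-wide profiling panel.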
For assay [4], the target named is Calcium/calmodulin-dependent protein kinase type II subunit alpha (Homo sapiens, UniProt Q9UQM7). Kind of assay: Navigating the Kinome. Panel member name: CAMK2A. The class given is functional.
Assay [5] concerns the target Serine/threonine-protein kinase pim-1 (Homo sapiens, UniProt P11309). The assay is classed as functional.
The target of another assay is Activin receptor type-1 (Homo sapiens, UniProt Q04771). Put plainly: Navigating the Kinome. Panel member name: ACVR1. The assay is classed as functional.
For assay [6], the target named is Dual specificity tyrosine-phosphorylation-regulated kinase 1A (Homo sapiens, UniProt Q13627). The class given is functional.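 Also: measured against DYRK1A as one member of a broad kinome profiling panel.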
Assay [7] addresses Platelet-derived growth factor receptor alpha (Homo sapiens, UniProt P16234). Put plainly: Navigating the Kinome. Panel member name: PDGFRA. The assay is classed as functional.
The target in assay [8] is Glycogen synthase kinase-3 alpha (Homo sapiens, UniProt P49840). The assay is classed as functional.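 Also: GSK3A result taken from a broad kinome-wide kinase panel.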

The structures appear in SMILES notation. The source made the active and inactive calls. No rule for the calls is given here.
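For CC50 in this document: cells exposed to compound for 72 hours before luminescence readout.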

Nonstructural protein 1, sequence (Q194T2 whole entry): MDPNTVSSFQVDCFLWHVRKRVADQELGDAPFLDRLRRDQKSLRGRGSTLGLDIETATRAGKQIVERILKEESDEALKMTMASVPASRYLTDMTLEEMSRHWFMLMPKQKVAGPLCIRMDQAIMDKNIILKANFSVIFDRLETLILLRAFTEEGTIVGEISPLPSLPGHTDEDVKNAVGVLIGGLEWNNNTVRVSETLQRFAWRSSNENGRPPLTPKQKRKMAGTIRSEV
Glycogen synthase kinase-3 alpha, sequence (P49840 whole entry): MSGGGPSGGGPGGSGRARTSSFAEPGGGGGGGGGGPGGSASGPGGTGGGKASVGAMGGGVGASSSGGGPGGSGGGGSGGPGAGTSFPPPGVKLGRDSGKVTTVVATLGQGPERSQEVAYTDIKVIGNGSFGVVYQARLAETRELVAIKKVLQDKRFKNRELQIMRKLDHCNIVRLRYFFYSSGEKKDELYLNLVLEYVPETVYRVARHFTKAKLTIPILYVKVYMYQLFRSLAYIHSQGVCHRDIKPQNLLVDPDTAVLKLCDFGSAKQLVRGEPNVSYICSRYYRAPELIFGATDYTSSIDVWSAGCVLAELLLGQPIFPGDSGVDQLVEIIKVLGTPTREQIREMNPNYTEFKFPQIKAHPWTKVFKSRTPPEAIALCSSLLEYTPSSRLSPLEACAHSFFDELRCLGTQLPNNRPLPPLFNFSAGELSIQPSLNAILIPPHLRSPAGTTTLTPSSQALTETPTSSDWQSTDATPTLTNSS
Activin receptor type-1, sequence (Q04771 whole entry): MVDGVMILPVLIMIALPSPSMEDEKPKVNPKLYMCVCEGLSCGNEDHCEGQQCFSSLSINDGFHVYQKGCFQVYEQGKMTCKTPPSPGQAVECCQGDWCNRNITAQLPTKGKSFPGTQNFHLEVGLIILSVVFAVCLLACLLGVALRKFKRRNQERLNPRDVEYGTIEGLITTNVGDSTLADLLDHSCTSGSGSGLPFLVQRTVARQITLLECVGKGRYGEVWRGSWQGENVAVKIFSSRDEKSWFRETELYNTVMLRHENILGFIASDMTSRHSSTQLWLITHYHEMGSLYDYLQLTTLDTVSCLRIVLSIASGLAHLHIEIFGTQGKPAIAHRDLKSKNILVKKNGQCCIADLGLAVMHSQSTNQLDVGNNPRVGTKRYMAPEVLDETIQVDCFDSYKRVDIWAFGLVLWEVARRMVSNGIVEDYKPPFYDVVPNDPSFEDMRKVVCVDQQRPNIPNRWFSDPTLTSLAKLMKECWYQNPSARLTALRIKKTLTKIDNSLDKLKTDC
Ribosomal protein S6 kinase alpha-3, sequence (P51812 whole entry): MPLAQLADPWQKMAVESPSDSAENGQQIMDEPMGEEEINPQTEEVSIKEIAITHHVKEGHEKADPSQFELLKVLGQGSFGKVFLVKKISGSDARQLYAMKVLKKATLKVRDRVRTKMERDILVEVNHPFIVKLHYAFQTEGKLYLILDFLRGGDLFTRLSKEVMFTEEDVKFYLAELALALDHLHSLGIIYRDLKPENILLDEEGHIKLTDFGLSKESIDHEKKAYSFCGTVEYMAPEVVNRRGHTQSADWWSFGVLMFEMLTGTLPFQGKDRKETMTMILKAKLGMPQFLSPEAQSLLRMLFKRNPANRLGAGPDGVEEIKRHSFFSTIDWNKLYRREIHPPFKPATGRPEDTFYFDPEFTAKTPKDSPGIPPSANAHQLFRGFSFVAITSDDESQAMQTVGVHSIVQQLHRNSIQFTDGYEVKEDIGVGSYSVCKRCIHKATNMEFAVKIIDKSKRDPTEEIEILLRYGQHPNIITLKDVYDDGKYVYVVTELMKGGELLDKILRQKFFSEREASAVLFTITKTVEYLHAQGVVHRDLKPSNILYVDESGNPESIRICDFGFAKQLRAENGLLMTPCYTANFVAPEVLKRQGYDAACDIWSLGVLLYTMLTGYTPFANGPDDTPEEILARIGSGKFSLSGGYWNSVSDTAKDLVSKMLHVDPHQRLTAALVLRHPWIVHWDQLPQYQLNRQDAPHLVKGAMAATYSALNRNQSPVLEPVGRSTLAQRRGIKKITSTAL
Calcium/calmodulin-dependent protein kinase type II subunit alpha, sequence (Q9UQM7 whole entry): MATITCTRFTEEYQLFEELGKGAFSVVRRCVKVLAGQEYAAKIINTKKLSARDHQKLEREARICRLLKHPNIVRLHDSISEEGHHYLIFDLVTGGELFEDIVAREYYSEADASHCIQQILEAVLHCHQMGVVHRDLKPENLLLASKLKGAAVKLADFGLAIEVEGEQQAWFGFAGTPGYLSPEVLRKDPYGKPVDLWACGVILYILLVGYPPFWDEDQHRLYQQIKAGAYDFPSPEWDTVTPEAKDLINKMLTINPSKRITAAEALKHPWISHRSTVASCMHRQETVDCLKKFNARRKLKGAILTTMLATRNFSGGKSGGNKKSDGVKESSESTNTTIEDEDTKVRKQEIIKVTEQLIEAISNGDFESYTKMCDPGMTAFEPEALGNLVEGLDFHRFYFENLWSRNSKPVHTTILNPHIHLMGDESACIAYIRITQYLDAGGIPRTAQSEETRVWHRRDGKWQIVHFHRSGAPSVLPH
Serine/threonine-protein kinase pim-1, sequence (P11309 whole entry): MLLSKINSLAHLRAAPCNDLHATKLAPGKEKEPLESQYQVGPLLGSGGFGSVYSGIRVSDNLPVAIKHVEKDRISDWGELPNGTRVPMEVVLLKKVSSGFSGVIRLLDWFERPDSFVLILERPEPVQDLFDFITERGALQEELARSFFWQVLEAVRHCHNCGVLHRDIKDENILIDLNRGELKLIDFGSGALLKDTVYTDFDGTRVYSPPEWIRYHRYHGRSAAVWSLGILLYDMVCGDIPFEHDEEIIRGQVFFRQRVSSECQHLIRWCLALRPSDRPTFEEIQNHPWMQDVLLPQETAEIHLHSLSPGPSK
Platelet-derived growth factor receptor alpha, sequence (P16234 whole entry): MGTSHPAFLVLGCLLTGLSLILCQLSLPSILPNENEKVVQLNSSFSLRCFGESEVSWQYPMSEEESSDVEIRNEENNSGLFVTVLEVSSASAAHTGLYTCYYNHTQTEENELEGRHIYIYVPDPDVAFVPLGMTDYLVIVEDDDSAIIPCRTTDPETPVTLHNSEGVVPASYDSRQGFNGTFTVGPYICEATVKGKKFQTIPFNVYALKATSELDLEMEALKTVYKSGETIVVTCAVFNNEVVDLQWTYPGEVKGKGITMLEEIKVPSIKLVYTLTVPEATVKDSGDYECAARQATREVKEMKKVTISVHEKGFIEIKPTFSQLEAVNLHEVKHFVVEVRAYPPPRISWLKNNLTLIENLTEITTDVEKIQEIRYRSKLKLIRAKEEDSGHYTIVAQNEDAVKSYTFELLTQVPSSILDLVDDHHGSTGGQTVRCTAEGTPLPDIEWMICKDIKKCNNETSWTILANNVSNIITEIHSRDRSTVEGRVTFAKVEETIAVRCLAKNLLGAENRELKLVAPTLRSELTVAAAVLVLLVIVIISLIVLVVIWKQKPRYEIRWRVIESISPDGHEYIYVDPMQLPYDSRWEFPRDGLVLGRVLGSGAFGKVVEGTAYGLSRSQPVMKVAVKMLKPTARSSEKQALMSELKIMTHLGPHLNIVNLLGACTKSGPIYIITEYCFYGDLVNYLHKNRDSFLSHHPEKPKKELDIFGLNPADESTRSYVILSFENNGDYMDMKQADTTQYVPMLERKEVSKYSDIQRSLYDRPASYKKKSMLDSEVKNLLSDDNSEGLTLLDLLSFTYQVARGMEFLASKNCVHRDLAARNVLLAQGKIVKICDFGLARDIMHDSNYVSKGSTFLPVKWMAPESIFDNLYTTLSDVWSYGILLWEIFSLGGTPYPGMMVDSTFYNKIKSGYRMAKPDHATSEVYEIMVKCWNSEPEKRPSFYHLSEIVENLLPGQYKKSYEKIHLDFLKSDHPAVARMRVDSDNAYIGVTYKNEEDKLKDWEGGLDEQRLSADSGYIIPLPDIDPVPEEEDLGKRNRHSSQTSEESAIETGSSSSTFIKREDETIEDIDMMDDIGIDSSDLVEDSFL

In general, AC50 refers to the concentration at which the activity in the assay is half-maximal. Consider `CCc1cc[n+](C2=C([N-]S(=O)(=O)c3cccs3)C(=O)c3ccccc3C2=O)cc1`, for which the AC50 in assay [1] was 1.15 µM (active).

One may read the CC50 as the concentration that lowers cell viability or growth by half. For `O=C(NC1=C(NC2CCS(=O)(=O)C2)C(=O)c2ccccc2C1=O)c1ccccc1` (stereo not given), the half-maximal cytotoxic concentration (CC50) in [2] was 5.15 µM (active).

As usually defined, the IC50 is the concentration that gives 50% inhibition. With `CCCC(=O)NC(c1ccc(N(C)C)cc1)c1ccc2cccnc2c1O` (stereo not given), on Nonstructural protein 1, the half-maximal inhibitory concentration (IC50) was 17.7 µM (active).

As a reminder, the Ki is a measure of affinity in units of concentration, obtained from inhibition or displacement. Regarding `O=C1NC(=O)C(c2c[nH]c3ccccc23)=C1c1nc(N2CCNCC2)nc2ccccc12`, the Ki in [3] was 0.0501 µM (active); in [4], 0.501 µM (active); in [5], 0.1 µM (active); on Activin receptor type-1 it was > 3.98 µM (inactive); in assay [6], > 2 µM (inactive); in assay [7] it was > 2.51 µM (inactive). Moreover, the inhibition constant (Ki) in [8] was 0.0398 µM (active).
